Active and inactive are the calls of the source. No cut-off for these calls is given here.

One test concerns the target Acetylcholinesterase (Electrophorus electricus, UniProt O42275). The test can be described thus: Inhibition of electric eel AChE using acetylthiocholine chloride as a substrate incubated for 20 mins followed by substrate addition and measured after 20 mins by Ellman's method.
For the next test, the system named is SH-SY5Y. Description: Neuroprotective activity against H2O2-induced oxidative stress in human SH-SY5Y cells assessed as cell viability at 50 uM pretreated for 1 hr followed by H2O2 addition and measured after 4 hrs by MTT assay relative to control. It is filed as functional. Particulars: time 5 hrs, read-out: Activity.
Test [1] addresses Acetylcholinesterase (Electrophorus electricus) (UniProt O42275). Description: Inhibition of electric eel AChE at 100 uM using acetylthiocholine chloride as a substrate incubated for 20 mins followed by substrate addition and measured after 20 mins by Ellman's method relative to control. The conditions noted are these: time 40.0 min.
Test [2] shares this target. Description: Inhibition of electric eel AChE at 100 uM using acetylthiocholine chloride as a substrate incubated for 20 mins followed by substrate addition and measured after 20 mins by Ellman's method. Particulars: time 40.0 min.
The target is the same in test [3]. Description: Potency index, ratio of HPA IC50 to test compound IC50 for inhibition of electric eel AChE using acetylthiocholine chloride as a substrate incubated for 20 mins followed by substrate addition and measured after 20 mins by Ellman's method. The conditions noted are these: time 40.0 min.

Acetylcholinesterase, sequence (O42275 whole entry): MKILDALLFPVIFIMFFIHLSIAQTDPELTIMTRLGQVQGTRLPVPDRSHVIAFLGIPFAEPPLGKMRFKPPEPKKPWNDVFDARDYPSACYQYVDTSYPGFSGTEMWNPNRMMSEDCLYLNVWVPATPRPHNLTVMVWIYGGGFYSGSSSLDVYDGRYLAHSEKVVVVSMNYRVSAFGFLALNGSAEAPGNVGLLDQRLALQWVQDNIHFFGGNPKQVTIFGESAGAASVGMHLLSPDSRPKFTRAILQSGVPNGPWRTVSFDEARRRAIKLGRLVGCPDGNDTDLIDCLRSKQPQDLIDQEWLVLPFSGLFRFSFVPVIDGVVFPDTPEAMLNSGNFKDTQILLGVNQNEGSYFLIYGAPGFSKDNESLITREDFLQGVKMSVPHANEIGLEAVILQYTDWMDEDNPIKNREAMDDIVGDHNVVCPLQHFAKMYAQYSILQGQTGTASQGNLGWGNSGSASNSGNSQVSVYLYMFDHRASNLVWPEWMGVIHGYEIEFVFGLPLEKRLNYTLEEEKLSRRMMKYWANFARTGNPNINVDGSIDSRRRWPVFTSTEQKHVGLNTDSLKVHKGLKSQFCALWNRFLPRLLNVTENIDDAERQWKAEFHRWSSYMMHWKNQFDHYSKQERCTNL
Acetylcholinesterase (Electrophorus electricus), sequence (O42275 24-633 limits assumed): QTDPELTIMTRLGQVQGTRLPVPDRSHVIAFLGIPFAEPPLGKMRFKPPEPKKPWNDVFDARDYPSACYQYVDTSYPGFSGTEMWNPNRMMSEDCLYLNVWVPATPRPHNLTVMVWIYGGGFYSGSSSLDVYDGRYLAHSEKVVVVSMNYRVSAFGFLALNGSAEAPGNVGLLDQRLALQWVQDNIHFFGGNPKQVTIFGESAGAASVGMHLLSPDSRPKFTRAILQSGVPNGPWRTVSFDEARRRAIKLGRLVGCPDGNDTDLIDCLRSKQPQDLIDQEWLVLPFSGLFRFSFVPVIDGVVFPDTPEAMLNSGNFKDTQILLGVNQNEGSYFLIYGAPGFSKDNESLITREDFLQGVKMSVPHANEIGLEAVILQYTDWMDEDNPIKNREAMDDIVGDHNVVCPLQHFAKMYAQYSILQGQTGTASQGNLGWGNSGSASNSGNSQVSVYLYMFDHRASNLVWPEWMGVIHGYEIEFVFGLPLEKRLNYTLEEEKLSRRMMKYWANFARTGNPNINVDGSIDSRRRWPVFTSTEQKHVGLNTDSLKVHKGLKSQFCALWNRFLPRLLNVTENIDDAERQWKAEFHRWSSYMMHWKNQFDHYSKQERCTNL

In turn, `C/C=C1\[C@H]2C=C(C)C[C@]1(Nc1ncc(C)cc1C)c1ccc(=O)[nH]c1C2` yielded an IC50 at Acetylcholinesterase of 43 µM. Besides, the viability at 50 µM with SH-SY5Y is over 100%. Moreover, the inhibition in test [1] is over 92%.
Consider `C/C=C1\[C@H]2C=C(C)C[C@]1(Nc1ccc(F)cc1)c1ccc(=O)[nH]c1C2`, for which the IC50 against Acetylcholinesterase came out at 4.5 µM. Besides, the inhibition in test [1] is over 92%.
With `C/C=C1\[C@H]2C=C(C)C[C@]1(Nc1cccc(C)c1)c1ccc(=O)[nH]c1C2`, at Acetylcholinesterase, the IC50 worked out at 47 µM. Further, the viability at 50 µM in the test on SH-SY5Y was over 100%. Moreover, the inhibition in test [1] was over 92%.
Regarding `C/C=C1\[C@H]2C=C(C)C[C@]1(Nc1cccc(C)n1)c1ccc(=O)[nH]c1C2`, the viability at 50 µM with SH-SY5Y was over 100%.
For `C/C=C1\[C@H]2C=C(C)C[C@]1(Nc1cccc(OC)c1)c1ccc(=O)[nH]c1C2`, the inhibition entry in test [2] is “Active”.
On to `C/C=C1\[C@H]2C=C(C)C[C@]1(Nc1cc(C)ccn1)c1ccc(=O)[nH]c1C2`, for which the viability at 50 µM with SH-SY5Y was over 100%. In addition, in test [2], the inhibition result is “Active”.
For the compound `C/C=C1\[C@H]2C=C(C)C[C@]1(Nc1ccc(Cl)cc1)c1ccc(=O)[nH]c1C2`, the inhibition result in test [2] is “Active”.
On to `C/C=C1\[C@H]2C=C(C)C[C@]1(Nc1ccc3c(c1)OCO3)c1ccc(=O)[nH]c1C2`, for which, in the test on SH-SY5Y, the viability at 50 µM was over 100%.
Consider `C/C=C1\[C@H]2C=C(C)C[C@]1(Nc1ccc(OC)cn1)c1ccc(=O)[nH]c1C2`, for which the half-inhibitory concentration (IC50) against Acetylcholinesterase amounted to 1.5 µM. The Ratio IC50 in test [3] was 7.6. In addition, the viability at 50 µM with SH-SY5Y was 144%. In addition, the inhibition in test [1] was determined as 106%.
For the compound `C/C=C1\[C@H]2C=C(C)C[C@]1(Nc1cccc3ncccc13)c1ccc(=O)[nH]c1C2`, the viability at 50 µM in the test with SH-SY5Y is over 100%.
Turning to `C/C=C1\[C@H]2C=C(C)C[C@]1(Nc1ccc(C)cc1)c1ccc(=O)[nH]c1C2`, the viability at 50 µM in the test with SH-SY5Y was over 100%.
Turning to `C/C=C1\[C@H]2C=C(C)C[C@]1(Nc1cccc(F)c1)c1ccc(=O)[nH]c1C2`, the inhibition result in test [2] was “Active”.
As for `C/C=C1\[C@H]2C=C(C)C[C@]1(Nc1cc(C)cc(C)c1)c1ccc(=O)[nH]c1C2`, the viability at 50 µM with SH-SY5Y was over 100%.
At Acetylcholinesterase, `C/C=C1\[C@H]2C=C(C)C[C@]1(Nc1ncccc1C)c1ccc(=O)[nH]c1C2` returned an IC50 of 40 µM. In addition, the inhibition in test [1] is over 92%.
As to `C/C=C1\[C@H]2C=C(C)C[C@]1(Nc1ncccc1OC)c1ccc(=O)[nH]c1C2`, the inhibition entry in test [2] is “Active”.
Regarding `C/C=C1\[C@H]2C=C(C)C[C@]1(Nc1ccc(OCC)cc1)c1ccc(=O)[nH]c1C2`, the viability at 50 µM with SH-SY5Y is over 100%.
`C/C=C1\[C@H]2C=C(C)C[C@]1(Nc1c(C)cc(OC)cc1C)c1ccc(=O)[nH]c1C2` came in with an IC50 against Acetylcholinesterase of 3.9 µM. The viability at 50 µM in the test with SH-SY5Y was over 100%. In addition, the inhibition in test [1] was found to be 96%.
